From patent publication US10226509B2, “Lymphangiogenesis inhibitors for cancer and for graft survival” (TUFTS UNIVERSITY, priority 2014, dated 2019) come the findings set out here.

“Also recorded” adds a separate entry of the source.

One assay deals with LEC spheroids. Briefly: LEC sprouting assay: stimulation by galectins alone. It counts as cell-based, human. How it is done: LEC spheroids were generated by seeding primary LECs at passage 4 or 5 in each well of 384-well hanging-drop plates (3D Biomatrix) in complete EGM-2 MV medium containing 0.25% methyl cellulose according to the manufacturer's instructions (750 cells/well). After 18 hours, LEC spheroids were collected, resuspended in serum-free EBM-2 basal medium, and mixed with collagen solution (PureCol collagen, Advanced BioMatrix, 2.2 mg/ml in M199 medium, pH adjusted to 7.4 with NaHCO3 and NaOH). Aliquots of the LEC spheroid/collagen mixture (250 μl/well of 48-well plate) were incubated in the presence or absence of various test agents for 24 hr. At the end of the incubation period, spheroids were stained with Calcein AM (Invitrogen, 1 μg/mL, 37° C., and 30 min). Fluorescent images were acquired using the EVOS FL cell imaging system, pixels were inverted for better visualization and cumulative length of each sprout was calculated. Results were expressed as fold change compared to corresponding controls. It was observed that sprout lengths vary from passages to passages. Test agents used included thiodigalactoside (10 to 50 mM, Carbosynth), 3′-sialyl lactose (2 to 10 mM, Carbosynth), 6′-sialyl lactose (2 to 10 mM, Carbosynth), LY294002 (20 μM, Abeam), U0126 (20 μM, Abeam), PD0325901 (1 μM, Selleckchem), human VEGFR-3-Fc chimera (10 μg/ml, R&D), human VEGFR-2-Fc chimera (10 μg/ml, R&D), Avastin (10 μg/ml, bevacizumab, Genentech/Roche), human control IgG (10 μg/ml, Southern Biotech), anti-human podoplanin functional grade antibody (10 μg/ml, eBioscience), and rat IgG2a κ isotype control functional grade antibody (10 μg/ml, eBioscience).
To assess the effect of galectins on LEC sprouting, LEC spheroids were embedded in a collagen matrix and incubated with media containing various test agents. After 24 hours, the cumulative length of the sprouts for each spheroid was quantified by ImageJ. […] Multiple approaches were used to determine whether the stimulatory effect of Gal-8 on LEC sprouting was carbohydrate-dependent.

Another assay deals with PDPN. The assay can be described thus: Cell surface expression of PDPN by flow cytometry. Particulars: 30 min post-treatment; Gal-8 0.2 μM. It is filed as cell-based, human. The procedure: Primary LECs were serum-starved overnight in basal EBM-2 medium. The cells were incubated with or without VEGF-C (50 ng/ml, PeproTech) or Gal-8 (0.2 μM) in serum-free EBM-2 medium for 10 and 30 min. At the end of the incubation period, cells were lifted with StemPro® Accutase® cell dissociation reagent (Invitrogen), washed with PBS and fixed with 4% paraformaldehyde/PBS on ice for 10 min, and were then stained using rat anti-human PDPN (1:500, BioLegend) and mouse anti-human VEGFR-3 (clone 9D9F9) (1:100, BioLegend) primary antibodies in cell staining buffer (BioLegend, 45 min on ice) and Alexa Fluor® 488 donkey anti-rat and Alexa Fluor® 647 anti-mouse secondary antibodies (1:1000, Invitrogen, 30 min on ice). For negative control, the primary antibodies were omitted. The stained cells were fixed with 2% paraformaldehyde/PBS, analyzed with BD FACSCalibur, and the mean fluorescence intensity of VEGFR-3 and PDPN were quantified with the FlowJo software (version 9.5.2).
In general terms: A flow cytometer gives signals particle by particle.

A further assay addresses T1, PDPN and integrin α5β1 (Homo sapiens, UniProt P05556+P08648+Q86YL7).
T1 construct: endogenous in cells; host or cells: primary lymphatic endothelial cells (LECs)
Briefly: Immunoprecipitation with anti-PDPN from LEC lysates. It counts as cell-based. Particulars: galectin-8 for 15 min at 37° C. The procedure: Mouse isotype antibody (15 μg, Santa Cruz Biotechnology) and anti-PDPN (15 μg, clone E-1, Santa Cruz Biotechnology) were immobilized onto AminoLink Plus coupling resin (Pierce) by sodium cyanoborohydride according to manufacturer's instructions. Primary LECs were serum-starved overnight and treated with galectin-8 (0.2 μM) for 15 min at 37° C. After treatment, cells were lysed with IP lysis/wash buffer (25 mM Tris, 150 mM NaCl, 1 mM EDTA, 1% NP-40, 5% glycerol; pH 7.4) supplemented with protease inhibitor cocktails (Roche). After centrifugation (10 min, 13,000 rpm), supernatants (500 μg protein lysates) were pre-cleared by incubation for 1 hour with Pierce control agarose resin at 4° C. The clarified samples were incubated with the Ab-conjugated agarose resins overnight at 4° C. Immunoprecipitates were washed three times with IP lysis/wash buffer and once with conditioning buffer provided by the kit (Pierce). The bound proteins were eluted with low pH elution buffer, neutralized with Tris-HCl (pH 9.0), and analyzed with control inputs by western blotting using anti-integrin al (1:1,000, Abcam), anti-integrin α5 (clone H-104, 1:1,000, Santa Cruz Biotechnology), anti-integrin ([…] (clone N-20, 1:1,000, Santa Cruz Biotechnology), anti-PDPN, anti-galectin-8 (clone NBP1-66520, 1:1,000, Novus Biologicals) and anti-GAPDH as described in examples herein. […]

T1 sequence (Q86YL7 23-162): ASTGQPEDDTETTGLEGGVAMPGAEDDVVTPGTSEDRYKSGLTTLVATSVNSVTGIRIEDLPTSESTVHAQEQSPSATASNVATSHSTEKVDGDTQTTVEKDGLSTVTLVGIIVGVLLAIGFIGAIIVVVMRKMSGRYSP
T1 sequence (P08648 42-894 limits assumed): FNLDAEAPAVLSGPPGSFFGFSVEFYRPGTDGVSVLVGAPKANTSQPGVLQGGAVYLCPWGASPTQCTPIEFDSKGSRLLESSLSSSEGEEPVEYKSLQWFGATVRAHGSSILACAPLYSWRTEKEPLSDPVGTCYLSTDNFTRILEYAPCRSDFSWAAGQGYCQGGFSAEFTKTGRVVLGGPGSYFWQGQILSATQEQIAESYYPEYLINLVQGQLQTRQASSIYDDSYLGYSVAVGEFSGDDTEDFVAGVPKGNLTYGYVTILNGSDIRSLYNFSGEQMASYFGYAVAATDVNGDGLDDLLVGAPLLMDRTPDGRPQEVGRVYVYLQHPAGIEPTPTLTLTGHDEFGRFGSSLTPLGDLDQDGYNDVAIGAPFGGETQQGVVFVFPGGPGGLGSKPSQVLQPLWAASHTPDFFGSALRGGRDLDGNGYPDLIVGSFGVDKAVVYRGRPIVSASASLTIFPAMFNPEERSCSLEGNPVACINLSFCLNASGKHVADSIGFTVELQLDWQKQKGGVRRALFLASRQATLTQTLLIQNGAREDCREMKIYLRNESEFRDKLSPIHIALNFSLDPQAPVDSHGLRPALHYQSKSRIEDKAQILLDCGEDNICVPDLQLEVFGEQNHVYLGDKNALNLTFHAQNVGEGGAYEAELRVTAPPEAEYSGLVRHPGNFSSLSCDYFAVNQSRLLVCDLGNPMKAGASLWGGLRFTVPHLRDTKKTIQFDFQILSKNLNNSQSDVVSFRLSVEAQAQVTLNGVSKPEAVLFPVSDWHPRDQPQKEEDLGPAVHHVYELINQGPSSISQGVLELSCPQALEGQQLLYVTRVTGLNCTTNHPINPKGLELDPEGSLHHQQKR
T1 sequence (P08648 895-1049 limits assumed): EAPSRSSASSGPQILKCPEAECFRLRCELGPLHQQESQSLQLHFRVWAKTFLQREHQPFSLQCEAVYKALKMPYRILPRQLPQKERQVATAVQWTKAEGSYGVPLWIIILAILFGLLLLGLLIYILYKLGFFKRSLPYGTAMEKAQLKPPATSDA
T1 sequence (P05556 21-798): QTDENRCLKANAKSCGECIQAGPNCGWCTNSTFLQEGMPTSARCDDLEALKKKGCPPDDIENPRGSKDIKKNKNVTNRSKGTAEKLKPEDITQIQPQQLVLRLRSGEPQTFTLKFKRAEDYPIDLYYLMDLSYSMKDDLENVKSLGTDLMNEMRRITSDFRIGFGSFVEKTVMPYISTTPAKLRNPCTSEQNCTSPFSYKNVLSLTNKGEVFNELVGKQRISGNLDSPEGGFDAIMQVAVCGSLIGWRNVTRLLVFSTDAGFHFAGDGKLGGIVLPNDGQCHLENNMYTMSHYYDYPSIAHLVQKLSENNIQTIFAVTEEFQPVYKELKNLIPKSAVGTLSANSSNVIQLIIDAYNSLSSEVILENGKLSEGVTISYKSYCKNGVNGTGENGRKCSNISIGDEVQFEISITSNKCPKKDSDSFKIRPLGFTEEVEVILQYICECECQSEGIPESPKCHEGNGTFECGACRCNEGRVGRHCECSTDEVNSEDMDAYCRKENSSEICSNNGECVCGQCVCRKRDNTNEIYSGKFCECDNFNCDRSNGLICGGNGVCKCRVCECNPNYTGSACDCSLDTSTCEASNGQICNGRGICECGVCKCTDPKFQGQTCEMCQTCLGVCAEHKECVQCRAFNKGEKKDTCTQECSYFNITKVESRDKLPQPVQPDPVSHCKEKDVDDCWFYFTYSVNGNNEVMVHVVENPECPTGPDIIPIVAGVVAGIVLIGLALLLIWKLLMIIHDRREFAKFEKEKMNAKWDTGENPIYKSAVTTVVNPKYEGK

What is called EC50 is the concentration needed to bring the measured effect to its halfway point. As to “Gal-8: recombinant galectin-8, tandem-repeat type galectin with two different CRDs”, the “promotion of LEC sprouting by the agent alone (in words)” value with LEC spheroids (24 hours) was “concentration-dependent and was comparable to that of VEGF-C; also recorded: promotes LEC sprouting”. In addition, the “Hill's coefficient (nH) of galectin-8-mediated LEC sprouting” value in the assay on LEC spheroids (dose-response curve) was 3.7. Further, in the assay with LEC spheroids (sprouting activity at 0.75 μM set at 100%, read-out: EC50 of galectin-8-mediated LEC sprouting), the EC50 is 520 nM. The “increase of cell surface expression of PDPN” value in the assay on PDPN is recorded as “about 30%”. For the same substance, the “association between PDPN and integrin α5β1” value with PDPN and integrin α5β1 is “increased association between PDPN and integrin α5β1”.
